Experimental data taken from US4321271A, “Heterocyclic and aliphatic growth promotors” (Beecham Group Limited, priority 1979, dated 1982).
Where two headings read alike, the source gives them in different places.

How the values were obtained:
[1] = system: rumen fluid; test: In vitro incubation of buffered rumen fluid: volatile fatty acids, methane inhibition and hydrogen; format: cell-based, sheep; conditions: 20 h; for % hydrogen present: headspace gas; for Molar % VFA Acetate / Molar % VFA Butyrate / Molar % VFA Propionate / TVFA: sheep rumen fluid
Method: The compounds were tested for their ability to reduce or inhibit methane production and to enhance propionate formation. The method used is as follows:
The screening system is in vitro incubation of buffered rumen fluid with, or without, the addition of the test compound.
Rumen fluid is removed by suction from two rumen-fistulated sheep, just before feeding. The fluid is strained and mixed. The incubation is for twenty hours in a shaking water-bath at 39° C. Each incubation flask contains: 30 ml McDougall's bicarbonate buffer-pH 6.7-6.9, 10 ml strained rumen fluid, 200 mg substrate (the substrate is a ground sample of the diet on which the sheep has been fed) and 1 ml 10% aqueous ethanol containing 0.2% Tween 80 and the compound under examination. Samples are taken at the end of the incubation period for analysis of headspace gases and volatile fatty acids, by g.l.c. […]

[2] = system: methanogenesis; test: In vivo "gas collection screen" in sheep (respirometer): methanogenesis and hydrogen evolution; conditions: sheep 50 kg, in diet, 75 mg/day, 5 week period
Method: In vivo Studies in a "gas collection screen":
A Group of 4, 50 kg Sheep were fed diets containing the compound of Example 6 over 5 week period. A different sheep from each group was put into a respirometer for 24 hours each day. Each sheep was thus monitored once in every […]. Gas flow was maintained by a peristatic pump and measured using a commercial gas meter and a sub-sample collected in a butyl-rubber inner tube. Gas analysis was carried out by gas chromatograph using a R/E 204 gas chromatograph with both electron capture and […] detectors.
During a run-in control period it was found the sheep produced 19.2±0.4 liters methane/day and not more than 1.5 liters Hydrogen/day.
The compounds were stable in the feed over the period of the study. By feeding measured amounts to the sheep (no refusals) it was possible to "dose" each sheep with 75 mg/day.

[3] = Ovis aries, read-out: VFA production % difference from control, Acetate
[4] = Ovis aries, read-out: VFA production % difference from control, Propionate
[5] = Ovis aries, read-out: VFA production % difference from control, TVFA
[6] = Ovis aries, 10 ppm/flask, 39° C
[7] = Ovis aries, read-out: VFA production % difference from control, Butyrate

Row | SMILES | % hydrogen present ([1]; 10 ppm/flask, 39° C) [%] | Molar % VFA Acetate ([1]; 10 ppm/flask, 39° C) [%] | Molar % VFA Butyrate ([1]; 10 ppm/flask, 39° C) [%] | Molar % VFA Propionate ([1]; 10 ppm/flask, 39° C) [%] | TVFA ([1]; 10 ppm/flask, 39° C) [μM/ml] | percent change in VFA production versus control at 10 ppm [1, 3] [%] | percent change in VFA production versus control at 10 ppm [1, 4] [%] | percent change in VFA production versus control at 10 ppm [1, 5] [%] | inhibition at 10 ppm [1, 6] [%] | percent change in VFA production versus control at 10 ppm [1, 7] [%] | percent change in VFA production versus control at 5 µg/mL [1, 3] [%] | percent change in VFA production versus control at 5 µg/mL [1, 7] [%] | percent change in VFA production versus control at 5 µg/mL [1, 4] [%] | percent change in VFA production versus control at 5 µg/mL [1, 5] [%] | inhibition at 5 µg/mL ([1]; Ovis aries, tested at 5 ppm level, 39° C) [%] | % hydrogen present ([1]; tested at 5 ppm level, 39° C) [%] | % inhibition of methanogenesis [2] [%] | Hydrogen evolution [2] [liters/24h]
1 | OC(CN1CCCC1)C(Cl)(Cl)Cl (stereo not drawn) [Example 7, 1,1,1-Trichloro-3-(N-pyrrolidino)propan-2-ol] | 1.18 | 57.7 | 9.67 | 30.5 | 44.6 | -27.6 | 30.5 | -10.4 | 100 |  |  |  |  |  |  |  |  | 
2 | CCN(CC)CC(O)C(Cl)(Cl)Cl (stereo not drawn) [Example 3, 1,1,1-Trichloro-3-diethylaminopropan-2-ol] | 1.27 | 54.2 | 12.4 | 30.0 | 43.3 | -42.3 | 26.8 | -23 | 100 | -20 |  |  |  |  |  |  |  | 
3 | OC(CN1CCCCC1)C(Cl)(Cl)Cl (stereo not drawn) [Example 6, 1,1,1-Trichloro-3-(N-piperidino)propan-2-ol] | 1.34 | 57.7 | 9.64 | 30.7 | 45.3 | -25.8 | 34.1 | -8.3 | 100 | 7.9 | -19.1 | 27.7 | 23 | -7.1 | 32.2 | 0.09 | 9.1 | 2.1
4 | CC(C)CNCC(O)C(Cl)(Cl)Cl (stereo not drawn) [Example 4, 1,1,1-Trichloro-3-isobutylaminopropan-2-ol] | 1.07 | 55.3 | 12.3 | 30.0 | 40.1 | -45.7 | 18.8 | -29.4 | 100 | -29 |  |  |  |  |  |  |  | 
5 | OC(CNC1CCCCC1)C(Cl)(Cl)Cl (stereo not drawn) [Example 5, 1,1,1-Trichloro-3-cyclohexylaminopropan-2-ol] | 1.01 | 56.7 | 10.21 | 31.1 | 44.2 | -31.1 | 32.5 | -11.8 | 100 | 14.6 |  |  |  |  |  |  |  | 
6 | CN(C)CC(O)C(Cl)(Cl)Cl (stereo not drawn) [Example 2, 1,1,1-Trichloro-3-dimethylaminopropan-2-ol] | 1.61 | 55.6 | 12.2 | 29.7 | 43.9 | -35.5 | 31.5 | -18.4 | 100 | -18.1 |  |  |  |  |  |  |  | 
7 | CNCC(O)C(Cl)(Cl)Cl (stereo not drawn) [Example 1, 1,1,1-Trichloro-3-methylaminopropan-2-ol] | 1.43 | 55.3 | 12.1 | 30.4 | 40.6 | -44.7 | 22.3 | -28.2 | 100 | -29.7 |  |  |  |  |  |  |  | 
8 | CN1CCN(CC(O)C(Cl)(Cl)Cl)CC1 (stereo not drawn) [Compound A, reference compound] | 0.062 | 65.3 | 9.13 | 21.9 | 56.7 | -35 | 19.9 | -22.6 | 50.6 | 9 |  |  |  |  |  |  |  | 
